Data from patent US10888576B2, “Composition of HMB and ATP and methods of use” (Metabolic Technologies, Inc., priority 2018, dated 2021).

Columns and labels:
C-reactive protein (CRP) = assay: Serum C-reactive protein ELISA; format: in vivo, human; conditions: Mean ± SEM
Experimental: (§1) Prior to the study, participants were randomly assigned to receive either 3 g per day of HMB Free Acid (HMB) (combined with food-grade orange flavors and sweeteners), 400 mg per day of ATP (PEAK ATP®; TSI, Inc.), a combination of both 3 g of HMB and 400 mg per day of ATP, or a placebo (food-grade orange flavors and sweeteners) divided equally into three servings daily with the first serving given 30 minutes prior to exercise and the remaining two servings daily with the mid-day and evening meals. On the non-training days participants were instructed to consume one serving with each of three separate meals. The supplementation was continued daily throughout the training and testing protocols. Each serving was formulated with 1 gram of HMB free acid to account for fill and emptying variation and achieve a minimum effective dosage of 0.800 grams. This dosage would be equivalent to a 1 gram Ca-HMB dosage.
(§2) All blood draws throughout the study were obtained via venipuncture after a 12-hour fast by a trained phlebotomist. Whole blood was collected and transferred into appropriate tubes for obtaining serum and plasma and centrifuged at 1,500 g for 15 min at 4° C. Resulting serum and plasma were then aliquoted and stored at −80° C. until subsequent analyses.
(§3) Samples were thawed one time and analyzed in duplicate for each analyte. All blood draws were scheduled at the same time of day to negate confounding influences of diurnal hormonal variations. Serum total and free testosterone, cortisol, and C-reactive protein (CRP) were assayed via ELISA kits obtained from Diagnostic Systems Laboratories (Webster, Tex.). All hormones were measured in the same assay on the same day to avoid compounded interassay variance. […] Serum creatine kinase (CK) was measured using colorimetric procedures at 340 nm (Diagnostics Chemicals, Oxford, Conn.). Twenty-four hour urine collections were made and 3-methylhistine was determined by previously described methods (Rathmacher et al 1992 and Wilson et al, 2013).

free testosterone = assay: Serum free testosterone ELISA; format: in vivo, human; conditions: for effect on free testosterone: main effect; for Free Testosterone: Mean ± SEM
Experimental: as §1, §2, §3

resistance-trained males [1] = assay: Perceived Recovery Status (PRS) scale; format: in vivo, human; conditions: for effect on PRS: 12-week study, vs placebo; for PRS (perceived recovery score): scale of 0-10, Mean ± SEM
Experimental: as §1
[…] The PRS scale consists of values between 0-10, with 0-2 being very poorly recovered and with anticipated declines in performance, 4-6 being low to moderately recovered and expected similar performance, and 8-10 representing high perceived recovery with expected increases in performance.

resistance-trained males [2] = assay: Muscle strength: 1RM of back squat, bench press and deadlift (total strength); format: in vivo, human; conditions: for change in total strength during the overreaching cycle: from week 8 to week 10; for total strength gains: over the 12-week study, 1-RM of squat, bench press, deadlift
Experimental: After familiarization with procedures, muscle strength was assessed via 1RM testing of the back squat, bench press, and […]. Each lift was performed as described by the International Powerlifting Federation rules (44). Body composition (lean body mass, fat mass, and total mass) was determined by dual x-ray absorptiometry (DXA; Lunar Prodigy enCORE 2008, Madison, Wis., U.S.A.). Skeletal muscle hypertrophy was determined via the combined changes in ultrasonography-determined muscle thickness of the vastus lateralis (VL) and vastus intermedius (VI) muscles. The intraclass correlation coefficient (ICC) for the test-retest of muscle thickness measurements was r=0.97. Prior to the study, participants were randomly assigned to receive either 3 g per day of HMB Free Acid (HMB) (combined with food-grade orange flavors and sweeteners), 400 mg per day of ATP (PEAK ATP®; TSI, Inc.), a combination of both 3 g of HMB and 400 mg per day of ATP, or a placebo (food-grade orange flavors and sweeteners) divided equally into three servings daily with the first serving given 30 minutes prior to exercise and the remaining two servings daily with the mid-day and evening meals. On the non-training days participants were instructed to consume one serving with each of three separate meals. The supplementation was continued daily throughout the training and testing protocols. […] This dosage would be equivalent to a 1 gram Ca-HMB dosage. All participants performed a high volume resistance training protocol during the 12-week study. The phases of the study and measurements taken are shown in FIG. 1, and the exercise protocols for each phase of the study are shown in Tables 1 to 3. The training was divided into 3 phases, with Phase 1 consisting of daily undulating periodization (weeks 1 to 8), Phase 2 consisting of the overreaching cycle (weeks 9 and 10), and Phase 3 consisting of the taper cycle (weeks 11 and 12).

resistance-trained males [3] = assay: Vertical jump peak power on force platform; format: in vivo, human; conditions: for vertical jump power increase: over the 12-weeks of training; for decrease in vertical jump power during the overreaching cycle: over weeks 9 and 10
Experimental: Measurements of PP were also taken during a vertical jump (VJ) test performed on a multi-component AMTI force platform (Advanced Mechanical Technology, Inc., Watertown, Mass.), interfaced with a personal computer at a sampling rate of 1000 Hz (51). Data acquisition software (LabVIEW, version 7.1; National Instruments Corporation, Austin, Tex.) was used to calculate PP. Peak power was calculated as the peak combination of ground reaction force and peak velocity during the accelerated launch on the platform. The ICC of VJ power was 0.97. Prior to the study, participants were randomly assigned to receive either 3 g per day of HMB Free Acid (HMB) (combined with food-grade orange flavors and sweeteners), 400 mg per day of ATP (PEAK ATP®; TSI, Inc.), a combination of both 3 g of HMB and 400 mg per day of ATP, or a placebo (food-grade orange flavors and sweeteners) divided equally into three servings daily with the first serving given 30 minutes prior to exercise and the remaining two servings daily with the mid-day and evening meals. On the non-training days participants were instructed to consume one serving with each of three separate meals. The supplementation was continued daily throughout the training and testing protocols. […] This dosage would be equivalent to a 1 gram Ca-HMB dosage. All participants performed a high volume resistance training protocol during the 12-week study. The phases of the study and measurements taken are shown in FIG. 1, and the exercise protocols for each phase of the study are shown in Tables 1 to 3. The training was divided into 3 phases, with Phase 1 consisting of daily undulating periodization (weeks 1 to 8), Phase 2 consisting of the overreaching cycle (weeks 9 and 10), and Phase 3 consisting of the taper cycle (weeks 11 and 12).

skeletal muscle = conditions: acute ingestion of 2.4 grams; cited from earlier work
[4] = after HMB is fed; cited from earlier work
[5] = after administration; cited from earlier work

Compound | CRP (C-reactive protein (CRP); week 0 (baseline)) [mg/L] | CRP (C-reactive protein (CRP); week 1) [mg/L] | CRP (C-reactive protein (CRP); week 4) [mg/L] | CRP (C-reactive protein (CRP); week 8) [mg/L] | CRP (C-reactive protein (CRP); week 9 (overreaching)) [mg/L] | CRP (C-reactive protein (CRP); week 10 (overreaching)) [mg/L] | CRP (C-reactive protein (CRP); week 12) [mg/L] | effect on free testosterone (free testosterone) | Free Testosterone (free testosterone; week 0 (baseline)) [ng/dL] | Free Testosterone (free testosterone; week 1) [ng/dL] | Free Testosterone (free testosterone; week 4) [ng/dL] | Free Testosterone (free testosterone; week 8) [ng/dL] | Free Testosterone (free testosterone; week 9 (overreaching)) [ng/dL] | Free Testosterone (free testosterone; week 10 (overreaching)) [ng/dL] | Free Testosterone (free testosterone; week 12) [ng/dL] | effect on PRS (resistance-trained males [1]) | PRS (perceived recovery score) (resistance-trained males [1]; week 0 (baseline)) | PRS (perceived recovery score) (resistance-trained males [1]; week 1) | PRS (perceived recovery score) (resistance-trained males [1]; week 4) | PRS (perceived recovery score) (resistance-trained males [1]; week 8) | other results
CC(C)(O)CC(=O)O [HMB-FA, β-hydroxy-β-methylbutyric acid] | 1.0 ± 0.1 | 1.3 ± 0.3 | 1.0 ± 0.1 | 0.9 ± 0.01 | 1.0 ± 0.1 | 1.8 ± 0.8 | 1.1 ± 0.1 | no main effect differences | 109 ± 10 | 104 ± 8 | 116 ± 11 | 115 ± 9 | 118 ± 8 | 116 ± 8 | 127 ± 8 | improved PRS | 9.1 ± 0.3 | 6.3 ± 0.3 | 7.6 ± 0.3 | 8.5 ± 0.3 | PRS (perceived recovery score) (resistance-trained males [1]; week 9 (overreaching)): 8.0 ± 0.2; PRS (perceived recovery score) (resistance-trained males [1]; week 10 (overreaching)): 7.7 ± 0.2; PRS (perceived recovery score) (resistance-trained males [1]; week 12): 9.5 ± 0.2; change in total strength during the overreaching cycle (resistance-trained males [2]): −0.5±1.2%; total strength gains (resistance-trained males [2]): 77.1 ± 5.6 kg; vertical jump power increase (resistance-trained males [3]): 991±51 watts; decrease in vertical jump power during the overreaching cycle (resistance-trained males [3]): 1.4±0.4%; change in protein breakdown (skeletal muscle): −56%; change in skeletal muscle protein synthesis (skeletal muscle): +70%; loss of HMB to urine [4]: 20-50%; plasma levels of HMB compared with calcium HMB [5]: approximately double the plasma levels of HMB; time to plasma levels compared with calcium HMB [5]: about one-quarter the time
Nc1ncnc2c1ncn2[C@@H]1O[C@H](COP(=O)(O)OP(=O)(O)OP(=O)(O)O)[C@@H](O)[C@H]1O [ATP, Adenosine-5′-triphosphate] | 1.4 ± 0.4 | 1.1 ± 0.1 | 1.2 ± 0.2 | 1.9 ± 0.6 | 1.7 ± 0.6 | 1.1 ± 0.1 | 1.2 ± 0.2 | no main effect differences | 112 ± 13 | 114 ± 9 | 118 ± 6 | 117 ± 11 | 108 ± 7 | 110 ± 10 | 125 ± 13 | improved PRS scores after the overreaching cycle at weeks 10 and 12 | 9.6 ± 0.2 | 4.9 ± 0.4 | 7.5 ± 0.3 | 8.2 ± 0.3 | PRS (perceived recovery score) (resistance-trained males [1]; week 9 (overreaching)): 5.5 ± 0.4; PRS (perceived recovery score) (resistance-trained males [1]; week 10 (overreaching)): 5.5 ± 0.4; PRS (perceived recovery score) (resistance-trained males [1]; week 12): 8.6 ± 0.4; change in total strength during the overreaching cycle (resistance-trained males [2]): −2.±0.5%; total strength gains (resistance-trained males [2]): 55.3 ± 6.0 kg; vertical jump power increase (resistance-trained males [3]): 796±75 watts; decrease in vertical jump power during the overreaching cycle (resistance-trained males [3]): 2.2±0.4%
